Data: patent US20100310653A1, “USE OF AN EXTRACT MADE OF LEAVES OF GINKGO BILOBA” (DR. WILLMAR SCHWABE GMBH & CO. KG, priority 2007, published 2010)

Assay: Concentration of lead substances in blood plasma against time after 120 mg Ginkgo extract tablet
Conditions: humans, one tablet with 120 mg Ginkgo extract, means of 12 test persons, FIG. 1
Text: The presented values are means of 12 test persons. The administered amount is equal to the daily maximum dose, recommended by the monograph.

CC(C)(C)[C@]1(O)CC2OC(=O)CC23C(=O)OC2OC(=O)[C@H](O)C231 (stereo partly shown) [bilobalide]
concentration in blood plasma 12 hours after intake: very little concentrations
